In patent EP0343398A2, “7-Substituted quinolone- and naphthyridinecarboxylic acid derivatives” (BAYER AG, priority 1988, dated 1989):
Values after ≈ are worked out from the molar mass of the structure shown.

Legend:
Assay in all cases: MIC determination (MHK-Werte), comparison with Ciprofloxacin
Format in all cases: cell-based
[1] = test system: E.coli Neumann; conditions: for MIC: Escherichia coli
[2] = test system: Pseudo-monas Walter
[3] = test system: Staph. 1756
[4] = test system: Staph. FK422
[5] = test system: Staph. 133
[6] = test system: Enteroc. 27101
[7] = test system: Enterco. 9790
[8] = test system: Pseudo-monas Ellsworth

**Q.** For `NCc1ccc(-c2cc3c(cc2F)c(=O)c(C(=O)O)cn3C2CC2)cc1` [Beispiel 20, 7-(4-Aminomethylphenyl)-1-cyclopropyl-6-fluor-1,4-dihydro-4-oxo-3-chinolincarbonsäure], which MIC [1] is on record?
**A.** ≤ 0.015 µg/mL

**Q.** How did the MIC [2] turn out when `O=C(O)c1cn(C2CC2)c2cc(-c3cccnc3)c(F)cc2c1=O` [Beispiel 16] was run?
**A.** 0.5 µg/mL (≈ 1.54 µM)

**Q.** What about the MIC [1] of the same compound?
**A.** ≤ 0.015 µg/mL

**Q.** How did the MHK-Werte [3] turn out when `CCOC(=O)c1cn(C2CC2)c2cc(-c3ccccc3)c(F)cc2c1=O` [Beispiel 1, 1-Cyclopropyl-6-fluor-1,4-dihydro-4-oxo-7-phenyl-3-chinolincarbonsäure-ethylester] was run?
**A.** 0,062 µg/ml

**Q.** What about the MHK-Werte [4] of the same compound?
**A.** ≤0,015 µg/ml

**Q.** And the MHK-Werte [5]?
**A.** 0,062 µg/ml

**Q.** And the MHK-Werte [2]?
**A.** 0,5 µg/ml

**Q.** What about the MHK-Werte [1] of the same compound?
**A.** 0,062 µg/ml

**Q.** What about the MHK-Werte [6] of the same compound?
**A.** 0,062 µg/ml

**Q.** What about the MHK-Werte [7] of the same compound?
**A.** 0,125 µg/ml

**Q.** What about the MHK-Werte [8] of the same compound?
**A.** 0,25 µg/ml

**Q.** For `O=C(O)c1cn(C2CC2)c2cc(-c3ccc4ccccc4c3)c(F)cc2c1=O` [Beispiel 14], which MIC [2] is on record?
**A.** 1 µg/mL (≈ 2.68 µM)

**Q.** And the MIC [1]?
**A.** 0.062 µg/mL (≈ 0.166 µM)

**Q.** And the MIC [8]?
**A.** 0.25 µg/mL (≈ 0.67 µM)

**Q.** How did the MIC [3] turn out when `O=C(O)c1cn(C2CC2)c2cc(N3CCNCC3)c(F)cc2c1=O` [Ciprofloxacin, reference compound] was run?
**A.** 0.25 µg/mL (≈ 0.754 µM)

**Q.** What about the MIC [4] of the same compound?
**A.** 0.25 µg/mL (≈ 0.754 µM)

**Q.** And the MIC [5]?
**A.** 0.25 µg/mL (≈ 0.754 µM)

**Q.** And the MIC [2]?
**A.** 0.25 µg/mL (≈ 0.754 µM)

**Q.** And the MIC [1]?
**A.** ≤ 0.015 µg/mL

**Q.** What about the MIC [6] of the same compound?
**A.** 0.25 µg/mL (≈ 0.754 µM)

**Q.** What about the MIC [7] of the same compound?
**A.** 0.25 µg/mL (≈ 0.754 µM)
